Patent publication US12558336B2, “Metabolic rescue of retinal degeneration” (The Board of Trustees of the Leland Stanford Junior …, priority 2019, dated 2026)
Entries after “also recorded” stand apart in the source; their conditions may differ.

Tests used:
Pde6α^D670G mice [1] = assay: Histological analysis of outer nuclear layer (ONL) thickness by number of photoreceptor cell nuclei; type: in vivo, mouse; settings: vs untreated Pde6α^D670G mice, one month of age
Experimental: Histology—Mice were sacrificed and the eyes enucleated as previously described (19). Eyes were embedded in paraffin, sectioned, and stained with hematoxylin and eosin by Exaclibur Pathology, Inc. (Norman, OK), before being visualized by light microscopy (Leica DM 5000B, Leica Microsystems, Germany). Quantification of photoreceptor nuclei was conducted on several sections that contained the optic nerve, as follows: the distance between the optic nerve and the ciliary body was divided into four, approximately equal, quadrants. Three columns of nuclei (how many cell nuclei thick) were counted within each single quadrant. These counts were then used to determine the average thickness of the ONL for each individual animal at each time. Sectioning proceeded along the long axis of the segment, so that each section contained upper and lower retina as well as the posterior pole.
Gene ontology (GO) analysis was also performed in PANTHER.

Pde6α^D670G mice [2] = assay: Electroretinography (ERG) of treated Pde6α^D670G arRP mice; settings: vs untreated Pde6α^D670G mice, one month of age
Experimental: Mouse lines and husbandry—C57BL/6J-Pde6α^nmf363/nmf363, with a D670G mutation, herein referred to as Pde6α^D670G, mice were obtained from the Jackson Laboratory (Bar Harbor, ME, USA). Pde6α^D670G are co-isogenic in the C57BL/6J (B6) background; therefore, age-matched B6 mice were used as experimental controls. Mice were bred and maintained at the facilities of Columbia University and Stanford University. Animals were kept on a light-dark cycle (12 hour-12 hour). Food and water were available ad libitum throughout the experiment, whether treated or untreated. Dark-raising was performed under 24 hr dark cycle following approved institutional guidelines. […] All water bottles were covered in foil to reduce light exposure and changed weekly during the duration of the experiment following approved institutional guidelines.
Electroretinography (ERG)—Mice were dark-adapted overnight, manipulations were conducted under dim red-light illumination, and recordings were made using Espion or Celeris ERG Diagnosys equipment (Diagnosys LLL, Littleton, MA, USA) as previously described. Briefly, adult B6 control mice were tested at the beginning of each session to ensure equal readouts from the electrodes for both eyes before testing the experimental mice. Pupils were dilated using topical 2.5% phenylephrine hydrochloride and 1% tropicamide (Akorn Inc., Lakeforest, IL, USA). Mice were anesthetized by intraperitoneal injection of 0.1 ml/10 g body weight of anesthesia [1 ml ketamine 100 mg/ml (Ketaset III, Fort Dodge, IA, USA) and 0.1 ml xylazine 20 mg/ml (Lloyd Laboratories, Shenandoah, IA, USA) in 8.9 ml PBS]. Body temperature was maintained at 37° C. during the procedure. Both eyes were recorded simultaneously and responses were averaged for each trial. Responses were taken from the Espion/Celeris readout in microvolts.
Statistical and bioinformatics analysis—Results were also saved in Excel as .txt format and were uploaded into the Partek Genomics Suite 6.5 software package as described previously (5-9). The data was normalized to log base 2 and compared using 1-way ANOVA analysis. All proteins with non-significant (p>0.05) changes were eliminated from the table. The significant values were mapped using the ‘cluster based on significant genes’ visualization function with the standardization option chosen. […] Differences in experimental groups were determined by the Student's t-test as appropriate, or by one-way ANOVA followed by Tukey's post-hoc multiple comparison's test. p values <0.05 were considered significant. For ERG and histological analysis of mouse eyes, differences were determined by the Student's t-test as appropriate, or by one-way ANOVA followed by Tukey's post-hoc multiple comparison's test. p values<0.05 were considered significant.

SMILES: O=C(O)CCC(=O)C(=O)O [alpha-ketoglutarate, Alpha-ketoglutaric acid]
- thickness of the outer nuclear layer (ONL) by number of photoreceptor cell nuclei (Pde6α^D670G mice [1]): significant rescue of photoreceptor cells and their inner/outer segments; also recorded: significant increase in the thickness of the outer nuclear layer (ONL)

SMILES: NC(=O)c1cccnc1 [vitamin B3, Nicotinamide]
- maximum scotopic a-wave response, quantification of ERGs from a cohort of mice (Pde6α^D670G mice [2]): no significant visual rescue
- maximum scotopic b-wave response, quantification of ERGs from a cohort of mice (Pde6α^D670G mice [2]): no significant visual rescue
- rod photoreceptor cell response, quantification of ERGs from a cohort of mice (Pde6α^D670G mice [2]): no significant visual rescue
- rod photoreceptor cell response, scotopic 0.1 dim-light rod-specific ERG (representative traces) (Pde6α^D670G mice [2]; vitamins 2.5 g/L or alpha-ketoglutarate 10 g/L in drinking water from P0, ketogenic diet from P21): increased rod photoreceptor functional response
